This passage reports IC50 results from patent US11020398B2, “Amino-pyrrolopyrimidinone compounds and methods of use thereof” (ArQule, Inc., priority 2016, dated 2021).

Assay type in all cases: biochemical
Experiment [1] has as its target phosphorylated form of full length BTK (active BTK) (Homo sapiens (Human), UniProt Q06187). The experiment in a line: Mobility shift assay (MSA, Caliper LabChip), active BTK assay. As to conditions: Assay type B (MSA using active BTK). How it is done:
The active BTK assay consists of phosphorylated form of full length BTK. […] The enzyme inhibitor complexes is incubated, before the kinase activation reaction is initiated.
Mobility Shift Assay (MSA)
The active BTK assay consisted of phosphorylated form of full length BTK. […] The enzyme inhibitor complexes was incubated for 30 minutes at the room temperature and the kinase activation reaction was initiated by the addition of 1 μM Srctide peptide substrate and […].

Experiment [2] deals with full-length activated BTK (wildtype) (Homo sapiens (Human), UniProt Q06187). The experiment is described as follows: AlphaScreen assay, wild-type BTK.
The target in experiment [3] is full-length activated BTK mutant C481S (Homo sapiens (Human), UniProt Q06187, C481S). The experiment in a line: AlphaScreen assay, BTK mutant C481S. On the technique in general: Alpha assays give light when donor and acceptor beads are brought close together.
Sequence of full-length activated BTK mutant C481S (Q06187 whole entry C481S): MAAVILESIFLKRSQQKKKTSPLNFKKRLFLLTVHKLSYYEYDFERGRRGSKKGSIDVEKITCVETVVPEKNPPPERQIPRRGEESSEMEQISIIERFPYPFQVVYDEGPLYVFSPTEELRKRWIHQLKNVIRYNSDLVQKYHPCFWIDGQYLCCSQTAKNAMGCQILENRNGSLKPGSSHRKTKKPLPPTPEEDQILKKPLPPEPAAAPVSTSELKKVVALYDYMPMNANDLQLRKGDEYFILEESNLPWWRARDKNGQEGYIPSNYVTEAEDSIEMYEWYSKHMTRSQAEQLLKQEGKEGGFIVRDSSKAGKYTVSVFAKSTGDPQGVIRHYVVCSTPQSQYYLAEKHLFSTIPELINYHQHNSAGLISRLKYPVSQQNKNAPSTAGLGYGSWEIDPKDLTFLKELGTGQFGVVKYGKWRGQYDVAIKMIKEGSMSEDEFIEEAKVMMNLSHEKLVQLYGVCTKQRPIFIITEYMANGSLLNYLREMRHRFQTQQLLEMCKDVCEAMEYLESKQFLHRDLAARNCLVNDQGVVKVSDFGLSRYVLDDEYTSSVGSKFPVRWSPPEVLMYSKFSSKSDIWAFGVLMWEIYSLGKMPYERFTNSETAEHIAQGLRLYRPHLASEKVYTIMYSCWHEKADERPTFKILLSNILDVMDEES

Sequence of phosphorylated form of full length BTK (active BTK) (Q06187 whole entry): as the sequence (Q06187 whole entry C481S) above, with S481C counted along it
Sequence of full-length activated BTK (wildtype) (Q06187 whole entry): as the sequence (Q06187 whole entry C481S) above, with S481C counted along it

In the case of `N[C@@H]1CC[C@@H](Nc2ncnc3[nH]cc(C(=O)c4ccc(Oc5ccccc5)cc4)c23)C1` [Compound I-189, (4-(((1R,3R)-3-aminocyclopentyl)amino)-7H-pyrrolo[2,3-d]pyrimidin-5-yl)(4-phenoxyphenyl)methanone], the IC50 in experiment [1] came out at 17 nM.
Still for that read-out and setting: then `C[C@@H](O)[C@@H]1CC[C@@H](Nc2ncnc3[nH]cc(C(=O)c4ccc(Oc5cccc(F)c5)cc4Cl)c23)CO1` [Compound I-182, (2-chloro-4-(3-fluorophenoxy)phenyl)(4-(((3R,6S)-6-((R)-1-hydroxyethyl)tetrahydro-2H-pyran-3-yl)amino)-7H-pyrrolo[2,3-d]pyrimidin-5-yl)methanone], with 1.5 nM.
On the same count and under the same terms, the same measure for `N[C@H]1CC[C@@H](Nc2ncnc3[nH]cc(C(=O)c4cccc(NS(=O)(=O)c5ccccc5)c4)c23)CC1` [Compound I-121, N-(3-(4-((cis-4-aminocyclohexyl)amino)-7H-pyrrolo[2,3-d]pyrimidine-5-carbonyl)phenyl)benzenesulfonamide]: 7.3 nM; for `CC(C)(O)C(=O)N[C@H]1CC[C@@H](Nc2ncnc3[nH]cc(C(=O)c4ccccc4Cl)c23)CC1` [Compound I-115, N-(cis-4-((5-(2-chlorobenzoyl)-7H-pyrrolo[2,3-d]pyrimidin-4-yl)amino)cyclohexyl)-2-hydroxy-2-methylpropanamide]: 5.8 nM; for `N[C@H]1CC[C@@H](Nc2ncnc3[nH]cc(C(=O)c4ccc(Oc5ccccc5)cc4)c23)CC1` [Compound I-130, (4-((cis-4-aminocyclohexyl)amino)-7H-pyrrolo[2,3-d]pyrimidin-5-yl)(4-phenoxyphenyl)methanone]: 3.2 nM.
In the case of `CC(=O)N[C@H]1C[C@@H](Nc2ncnc3[nH]cc(C(=O)c4ccc(Oc5ccccc5)cc4)c23)C1` [Compound I-196, N-(cis-3-((5-(4-phenoxybenzoyl)-7H-pyrrolo[2,3-d]pyrimidin-4-yl)amino)cyclobutyl)acetamide], in experiment [1], the IC50 was determined as 3.2 nM.
Same read-out and setting: the same measure for `CC(C)(O)[C@@H]1CC[C@@H](Nc2ncnc3[nH]cc(C(=O)c4ccc(Oc5ccccc5)cc4Cl)c23)CO1` [Compound I-188, (2-chloro-4-phenoxyphenyl)(4-(((3R,6S)-6-(2-hydroxypropan-2-yl)tetrahydro-2H-pyran-3-yl)amino)-7H-pyrrolo[2,3-d]pyrimidin-5-yl)methanone]: 1.7 nM.
On the same count and under the same terms, then `C[C@H](O)C(=O)N[C@H]1CC[C@@H](Nc2ncnc3[nH]cc(C(=O)c4ccc(Oc5ccccc5)cc4Cl)c23)CC1` [Compound I-193, (S)—N-(cis-4-((5-(2-chloro-4-phenoxybenzoyl)-7H-pyrrolo[2,3-d]pyrimidin-4-yl)amino)cyclohexyl)-2-hydroxypropanamide], with 1.2 nM.
Still for that read-out and setting: the same measure for `CC(=O)N[C@@H](C)[C@@H]1CC[C@@H](Nc2ncnc3[nH]cc(C(=O)c4ccc(Oc5ccccc5)cc4C)c23)CO1` [Compound I-204, N-((S)-1-((2S,5R)-5-((5-(2-methyl-4-phenoxybenzoyl)-7H-pyrrolo[2,3-d]pyrimidin-4-yl)amino)tetrahydro-2H-pyran-2-yl)ethyl)acetamide]: 1.1 nM; for `COC1CN([C@H]2CC[C@@H](Nc3ncnc4[nH]cc(C(=O)c5ccccc5Cl)c34)CC2)C1` [Compound I-109, (2-chlorophenyl)(4-((cis-4-(3-methoxyazetidin-1-yl)cyclohexyl)amino)-7H-pyrrolo[2,3-d]pyrimidin-5-yl)methanone]: 3.2 nM; for `O=C(c1ccc(Oc2ccccc2)cc1)c1c[nH]c2ncnc(N[C@H]3C[C@H](CO)C3)c12` [Compound I-187, (4-((trans-3-(hydroxymethyl)cyclobutyl)amino)-7H-pyrrolo[2,3-d]pyrimidin-5-yl)(4-phenoxyphenyl)methanone]: 4.2 nM.
For `O=C(c1ccc(Oc2ccccc2)cc1Cl)c1c[nH]c2ncnc(N[C@H]3CC[C@H](O)[C@H](O)C3)c12` (racemic) [Compound I-180, rac-(2-chloro-4-phenoxyphenyl)(4-(((1S,3R,4S)-3,4-dihydroxycyclohexyl)amino)-7H-pyrrolo[2,3-d]pyrimidin-5-yl)methanone], in experiment [1], the IC50 came to 1.8 nM.
On the same count and under the same terms, then `C[C@@H](O)[C@@H](CO)NC(=O)[C@@H]1CC[C@@H](Nc2ncnc3[nH]cc(C(=O)c4ccc(Oc5ccccc5)cc4)c23)CO1` [Compound I-175, (2S,5R)—N-((2R,3R)-1,3-dihydroxybutan-2-yl)-5-((5-(4-phenoxybenzoyl)-7H-pyrrolo[2,3-d]pyrimidin-4-yl)amino) tetrahydro-2H-pyran-2-carboxamide], with 3.1 nM.
Still for that read-out and setting: the same measure for `CC1(O)CN([C@H]2CC[C@@H](Nc3ncnc4[nH]cc(C(=O)c5ccccc5Cl)c34)CC2)C1` [Compound I-111, (2-chlorophenyl)(4-((cis-4-(3-hydroxy-3-methylazetidin-1-yl)cyclohexyl)amino)-7H-pyrrolo[2,3-d]pyrimidin-5-yl)methanone]: 3 nM; for `CC(C)(O)C(=O)N[C@H]1CC[C@@H](Nc2ncnc3[nH]cc(C(=O)c4ccc(Oc5ccccc5)cc4)c23)CC1` [Compound I-203, 2-hydroxy-2-methyl-N-(cis-4-((5-(4-phenoxybenzoyl)-7H-pyrrolo[2,3-d]pyrimidin-4-yl)amino)cyclohexyl)propanamide]: 1.4 nM.
The same measure, in the same setting: then `C[C@@H](O)C(=O)NC[C@@H]1CC[C@@H](Nc2ncnc3[nH]cc(C(=O)c4ccc(Oc5ccccc5)cc4Cl)c23)CO1` [Compound I-216, (R)—N-(((2S,5R)-5-((5-(2-chloro-4-phenoxybenzoyl)-7H-pyrrolo[2,3-d]pyrimidin-4-yl)amino)tetrahydro-2H-pyran-2-yl)methyl)-2-hydroxypropanamide], with 1.9 nM.
`C[C@H](O)C(=O)N[C@H]1CC[C@@H](Nc2ncnc3[nH]cc(C(=O)c4ccc(Oc5ccccc5)cc4)c23)CC1` [Compound I-202, (S)-2-hydroxy-N-(cis-4-((5-(4-phenoxybenzoyl)-7H-pyrrolo[2,3-d]pyrimidin-4-yl)amino)cyclohexyl)propanamide]: the IC50 in experiment [1] came out at 1 nM.
As to `O=C(Nc1ccncc1)c1ccc(C(=O)c2c[nH]c3ncnc(N[C@@H]4CC[C@@H](CO)OC4)c23)c(Cl)c1` [Compound I-246, 3-chloro-4-(4-(((3R,6S)-6-(hydroxymethyl)tetrahydro-2H-pyran-3-yl)amino)-7H-pyrrolo[2,3-d]pyrimidine-5-carbonyl)-N-(pyridin-4-yl)benzamide], the figures for the IC50 in experiment [2] and in experiment [3] were 103 nM and 514 nM, respectively.
The matching figures for `O=C(Nc1ccccc1)c1cccc(C(=O)c2c[nH]c3ncnc(N[C@@H]4CC[C@@H](CO)OC4)c23)c1` [Compound I-634, 3-(4-(((3R,6S)-6-(hydroxymethyl)tetrahydro-2H-pyran-3-yl)amino)-7H-pyrrolo[2,3-d]pyrimidine-5-carbonyl)-N-phenylbenzamide]: 620 nM and 690 nM.
The matching figures for `O=C(Nc1cccc(C(=O)c2c[nH]c3ncnc(N[C@@H]4CC[C@@H](CO)OC4)c23)c1)c1ccccn1` [Compound I-643, N-(3-(4-(((3R,6S)-6-(hydroxymethyl)tetrahydro-2H-pyran-3-yl)amino)-7H-pyrrolo[2,3-d]pyrimidine-5-carbonyl)phenyl)picolinamide]: 269 nM and 150 nM.

The IC50 is the concentration needed to halve the response being measured.
